For one assay, the system named is Raji lymphoma cells. Description: Cytotoxicity study, MTT assay, Raji cells. The format is cell-based, human. Conditions: 96 hours, read-out: IC50 at 72* or 96 hours. The procedure: (§1) Example 1 illustrates a method of determining the antineoplastic activity of iminopyrrolidone thiol amino acid conjugates in vitro. Ninety-six (96) well plates (BD Biosciences, San Jose, Calif.) were seeded with approximately 5000 cells in 160 μl of growth medium per well in the last eleven columns of each plate. The first column of each plate was filled with 160 μl of growth medium containing no cells to be used as a blank. Following a 24-hour incubation period, the cells in the last ten columns were drugged (leaving row one as a blank and row two as a control with uninhibited cell growth) with 40 μl of either simexonyl homocysteine or imexon in growth medium. The quantity of drug added to the wells of each respective column was constant, but varied from column to column such that the resulting concentration in the total volume of each individual well ranged from 1 μM to 1000 μM. […]

Assay [1] deals with MiaPaCa human pancreatic cancer cells. Kind of assay: Cytotoxicity study, SRB assay, MiaPaCa cells. Format: cell-based. Conditions: 96 hours, read-out: IC50 at 72* or 96 hours. The procedure: as §1
Assay [2] relates to DB lymphoma cells. Kind of assay: Cytotoxicity study, MTT assay, DB cells. The format is cell-based, human. The settings on record: 96 hours, read-out: IC50 at 72* or 96 hours. The procedure: as §1
Assay [3] deals with DB lymphoma cells. The settings on record: 45, 90 or 180 μM, 48 hours after drug exposure, FIG. 6.
Procedure: DB and Raji lymphoma cells were kindly provided by Dr. Alan List (University of Arizona, Tucson, Ariz.). All cell lines were cultured in RPMI 1640 media (Mediatech, Herndon, Va.) enhanced with 5% (v/v) (10% for DB and Raji cells) heat-inactivated bovine calf serum (Hyclone Laboratories, Logan, Utah), 2 mM L-glutamine, 100 U/ml penicillin, and 100 μg/ml streptomycin (each from Invitrogen, Carlsbad, Calif.) in a humidified incubator containing 5% CO2 at 37° C.
DB lymphoma cells were cultured in ninety-six (96) well plates (BD Biosciences) under conditions as described hereinbefore. […] Forty eight hours after drug exposure, the percentage of necrotic, viable, proapoptotic, and apoptotic cells in each respective well was measured using an annexin V—FITC (fluorescein isothiocyanate labeled annexin V) apoptosis detection kit (BioVision Labs) according to the manufacturer's instructions in conjunction with a Bectin Dickenson FACScan (San Jose, Calif.) fluorescence activated cell sorter using CellQuest Pro software (BD Biosciences). […]
A threshold intensity for the fluorescence signal permits one to distinguish between proapoptotic and apoptotic cells in the flow cytometric analysis, but both are indicative of an induction of apoptosis by the drug.
The test system of assay [4] is A375 human malignant melanoma cells. Kind of assay: Cytotoxicity study, SRB assay, A375 cells. Format: cell-based. Conditions: 96 hours, read-out: IC50 at 72* or 96 hours. The procedure: as §1
The subject of assay [5] is DU-145 human prostate cancer cells. Kind of assay: Cytotoxicity study, SRB assay, DU-145 cells. Format: cell-based. Conditions: DU-145 - Prostate, 96 hours, read-out: IC50 at 72* or 96 hours. The procedure: as §1
In assay [6] the test system is 8226/s human myeloma cells (chemotherapy sensitive). Kind of assay: Cytotoxicity study, MTT assay, 8226/s cells. Format: cell-based. The settings on record: 8226/s - Myeloma, 96 hours, read-out: IC50 at 72* or 96 hours. The procedure:
as §1

Assay [7] has as its system PC-3 human prostate cancer cells. Description: Cytotoxicity study, SRB assay, PC-3 cells. Format: cell-based. Conditions: PC-3 - Prostate, 72 hours (*), read-out: IC50 at 72* or 96 hours. The procedure: as §1
Assay [8] has as its system 8226/I10 human myeloma cells (chemotherapy resistant). Description: Cytotoxicity study, MTT assay, 8226/I10 cells. The format is cell-based. The settings on record: 8226/I10 - Myeloma, 96 hours, read-out: IC50 at 72* or 96 hours. The procedure:
as §1

Where two headings read alike, the source gives them in different places.

With `NC1=NC(=O)N2CC12` (racemic) [imexon, (5RS)-4-amino-1,3-diazabicyclo[3.1.0]hex-3-en-2-one, reference compound], the IC50 was determined as 50 µM with Raji lymphoma cells (Homo sapiens); 190 µM in assay [1] (Homo sapiens, MIA PaCa-2, MiaPaCa - Pancreas); 54 µM in the assay on DB lymphoma cells [2] (Homo sapiens).

Take simexonyl homocysteine: the IC50 is 22 µM in the assay with Raji lymphoma cells; 46 µM in [1] (MiaPaCa - Pancreas); 15.4 µM in assay [4]; 143 µM in assay [5]; 23 µM in the assay with DB lymphoma cells [2]; 13.6 µM in assay [6]. The IC50 in [7] stood at 49 µM; in assay [8] it was 95 µM. In the assay with DB lymphoma cells [3], the “induction of apoptosis (percentage of proapoptotic and apoptotic cells)” value is reported as “induced apoptosis”.

Source of the values: patent US20100273848A1, “IMINOPYRROLIDONE THIOL AMINO ACID CONJUGATES, PHARMACEUTICAL COMPOSITIONS AND METHODS FOR THE TREATMENT OF CANCER” (THE ARIZONA BD OR REG ON BEHALF OF THE UNIV OF AZ, priority 2007, published 2010).
